Source: ChEMBL document CHEMBL5370674, “Optimization of mTOR Inhibitors Using Property-Based Drug Design and Free-Wilson Analysis for Improved In Vivo Efficacy” (ACS Med Chem Lett, 2023)

Tests used:
[1] = Apparent intrinsic clearance in human liver microsomes; assay type: ADME, Microsome; settings: read-out: CLH(app)
[2] = Fraction absorbed in rat at 4 mg/kg, po; assay type: ADME, organism-based; settings: in vivo, read-out: Fabs
[3] = Toxicity in Balb/c Nu/Nu mouse xenografted with human A549 cells assessed as reduction in body weight at 2 to 6 mg/kg, po administrated for 14 days; assay type: organism-based; design: scale not given: the % may be the effect or the level left; settings: in vivo, 336 h, dose 2-6 mg/kg, time 14 day
A549 [4] = test: Antitumor activity against human A549 cells xenografted in BALB/c Nu/Nu mouse assessed as tumor growth inhibition at 2 mg/kg, po administrated for 14 days relative to control; assay type: functional; settings: A549, 336 h, time 14 day, read-out: TGI
Cytochrome P450 2C9 = Cytochrome P450 2C9 (Homo sapiens, UniProt P11712); test: Inhibition of CYP2C9 (unknown origin); assay type: ADME
Cytochrome P450 2C8 = target: T1, Cytochrome P450 2C8 (Homo sapiens, UniProt P10632); test: Inhibition of CYP2C8 (unknown origin); assay type: ADME
T1 sequence (P10632 whole entry): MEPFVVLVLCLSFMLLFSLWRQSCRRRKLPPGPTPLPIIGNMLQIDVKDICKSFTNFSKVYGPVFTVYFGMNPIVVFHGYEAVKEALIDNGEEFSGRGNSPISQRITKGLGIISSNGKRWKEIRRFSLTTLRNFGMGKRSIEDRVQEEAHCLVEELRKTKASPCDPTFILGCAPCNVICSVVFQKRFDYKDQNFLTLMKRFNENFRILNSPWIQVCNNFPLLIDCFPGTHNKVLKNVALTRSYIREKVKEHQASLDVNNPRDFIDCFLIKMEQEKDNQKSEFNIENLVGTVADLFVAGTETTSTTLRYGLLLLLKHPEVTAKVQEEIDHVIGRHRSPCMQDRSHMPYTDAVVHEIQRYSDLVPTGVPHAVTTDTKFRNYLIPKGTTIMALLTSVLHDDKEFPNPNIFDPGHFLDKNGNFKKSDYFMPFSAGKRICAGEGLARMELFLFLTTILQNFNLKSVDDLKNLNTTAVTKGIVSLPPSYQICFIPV

Cytochrome P450 1A2 = target: T2, Cytochrome P450 1A2 (Homo sapiens, UniProt P05177); test: Inhibition of CYP1A2 (unknown origin); assay type: ADME
T2 sequence (P05177 whole entry): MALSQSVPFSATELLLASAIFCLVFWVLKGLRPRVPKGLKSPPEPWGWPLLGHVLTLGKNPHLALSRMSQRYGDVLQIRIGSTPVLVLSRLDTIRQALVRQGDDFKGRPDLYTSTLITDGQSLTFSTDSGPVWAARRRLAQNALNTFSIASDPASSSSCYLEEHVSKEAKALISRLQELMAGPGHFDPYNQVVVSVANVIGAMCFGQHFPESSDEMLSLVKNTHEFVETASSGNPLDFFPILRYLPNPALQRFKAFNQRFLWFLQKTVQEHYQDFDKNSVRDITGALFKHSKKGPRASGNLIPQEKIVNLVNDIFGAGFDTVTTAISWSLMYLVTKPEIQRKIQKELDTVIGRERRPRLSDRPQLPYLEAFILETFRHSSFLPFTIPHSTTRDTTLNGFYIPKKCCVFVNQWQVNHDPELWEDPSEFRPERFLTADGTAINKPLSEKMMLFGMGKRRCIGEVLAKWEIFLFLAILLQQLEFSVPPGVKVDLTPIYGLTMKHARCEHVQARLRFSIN

Cytochrome P450 2C19 = Cytochrome P450 2C19 (Homo sapiens, UniProt P33261); test: Inhibition of CYP2C19 (unknown origin); assay type: ADME
Cytochrome P450 2D6 = Cytochrome P450 2D6 (Homo sapiens, UniProt P10635); test: Inhibition of CYP2D6 (unknown origin); assay type: ADME
Cytochrome P450 3A4 = Cytochrome P450 3A4 (Homo sapiens, UniProt P08684); test: Inhibition of CYP3A4 (unknown origin); assay type: ADME
[5] = Intrinsic clearance in human liver microsomes; assay type: ADME, Microsome; settings: read-out: CLH
[6] = Toxicity in Balb/c Nu/Nu mouse xenografted with human A549 cells assessed as reduction in body weight at 30 mg/kg, po administrated for 14 days; assay type: organism-based; design: scale not given: the % may be the effect or the level left; settings: in vivo, 336 h, time 14 day
A549 [7] = test: Antitumor activity against human A549 cells xenografted in BALB/c Nu/Nu mouse assessed as tumor growth inhibition at 30 mg/kg, po administrated for 14 days relative to control; assay type: functional; settings: A549, 336 h, time 14 day, read-out: TGI
[8] = Selectivity ratio of IC50 for inhibition of PI3Kalpha (unknown origin) to IC50 for inhibition of recombinant human GST-tagged mTOR (1360 to 2549 residues) expressed in insect cells

Chain of Cytochrome P450 3A4 (P08684 whole entry): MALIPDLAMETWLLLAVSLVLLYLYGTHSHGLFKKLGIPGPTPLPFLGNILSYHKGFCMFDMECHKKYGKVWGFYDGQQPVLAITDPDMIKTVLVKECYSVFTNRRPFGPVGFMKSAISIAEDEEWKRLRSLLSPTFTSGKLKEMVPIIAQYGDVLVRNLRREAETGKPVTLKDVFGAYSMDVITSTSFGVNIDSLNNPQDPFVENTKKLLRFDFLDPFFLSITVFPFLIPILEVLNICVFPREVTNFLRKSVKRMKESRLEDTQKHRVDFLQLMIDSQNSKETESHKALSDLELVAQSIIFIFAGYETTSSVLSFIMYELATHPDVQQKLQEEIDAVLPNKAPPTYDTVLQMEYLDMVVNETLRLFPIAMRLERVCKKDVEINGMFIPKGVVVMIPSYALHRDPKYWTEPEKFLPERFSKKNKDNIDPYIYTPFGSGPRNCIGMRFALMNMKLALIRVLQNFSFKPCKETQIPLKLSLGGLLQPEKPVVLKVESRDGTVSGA
Chain of Cytochrome P450 2C19 (P33261 whole entry): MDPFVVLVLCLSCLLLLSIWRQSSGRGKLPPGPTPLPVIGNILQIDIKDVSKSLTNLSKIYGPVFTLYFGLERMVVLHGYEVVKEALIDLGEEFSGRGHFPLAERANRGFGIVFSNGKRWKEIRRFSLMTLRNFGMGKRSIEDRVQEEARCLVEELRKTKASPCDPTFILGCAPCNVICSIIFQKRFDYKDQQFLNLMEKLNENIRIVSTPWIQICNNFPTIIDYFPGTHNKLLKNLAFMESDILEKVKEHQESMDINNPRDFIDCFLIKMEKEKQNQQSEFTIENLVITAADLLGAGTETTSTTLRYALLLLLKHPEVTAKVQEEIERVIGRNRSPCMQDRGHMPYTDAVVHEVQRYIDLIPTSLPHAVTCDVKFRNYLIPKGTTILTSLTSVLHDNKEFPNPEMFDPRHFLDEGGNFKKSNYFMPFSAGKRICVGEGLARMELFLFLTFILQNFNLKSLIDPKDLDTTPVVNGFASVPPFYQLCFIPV
Chain of Cytochrome P450 2D6 (P10635 whole entry): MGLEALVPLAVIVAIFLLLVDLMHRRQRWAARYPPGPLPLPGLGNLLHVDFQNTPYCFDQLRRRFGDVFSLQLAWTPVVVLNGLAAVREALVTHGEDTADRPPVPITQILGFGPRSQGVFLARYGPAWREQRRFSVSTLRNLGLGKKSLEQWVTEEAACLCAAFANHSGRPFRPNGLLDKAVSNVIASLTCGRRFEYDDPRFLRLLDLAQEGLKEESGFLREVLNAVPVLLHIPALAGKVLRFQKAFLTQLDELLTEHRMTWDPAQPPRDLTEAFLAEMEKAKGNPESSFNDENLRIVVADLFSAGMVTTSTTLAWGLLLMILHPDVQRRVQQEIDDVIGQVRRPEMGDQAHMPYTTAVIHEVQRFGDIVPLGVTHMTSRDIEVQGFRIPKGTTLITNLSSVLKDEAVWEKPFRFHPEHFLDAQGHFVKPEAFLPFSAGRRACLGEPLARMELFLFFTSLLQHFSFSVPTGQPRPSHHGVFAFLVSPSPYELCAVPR
Chain of Cytochrome P450 2C9 (P11712 whole entry): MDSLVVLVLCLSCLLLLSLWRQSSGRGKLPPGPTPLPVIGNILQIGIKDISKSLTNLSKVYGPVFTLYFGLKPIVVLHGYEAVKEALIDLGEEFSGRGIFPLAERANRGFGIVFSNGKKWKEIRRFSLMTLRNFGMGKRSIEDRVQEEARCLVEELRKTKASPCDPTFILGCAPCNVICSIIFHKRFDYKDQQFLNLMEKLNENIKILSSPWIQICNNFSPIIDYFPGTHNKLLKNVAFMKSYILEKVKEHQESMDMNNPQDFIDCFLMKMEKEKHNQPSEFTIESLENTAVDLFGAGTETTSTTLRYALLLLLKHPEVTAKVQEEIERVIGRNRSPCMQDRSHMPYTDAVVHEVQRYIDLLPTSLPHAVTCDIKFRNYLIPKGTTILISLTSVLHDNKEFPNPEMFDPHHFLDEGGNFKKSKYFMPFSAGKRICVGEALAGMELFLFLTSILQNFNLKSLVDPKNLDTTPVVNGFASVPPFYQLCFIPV

| CLint scaled [1] [mL/min/kg] | SMILES | other results |
| --- | --- | --- |
| 11 | C[C@@]12COCCN1c1nc(-c3cnc4[nH]ccc4c3)ncc1N(C1(CCO)CC1)C2=O | – |
| 7 | Cc1cccc2c(-c3ncc4c(n3)N3CCOC[C@@]3(C)C(=O)N4[C@H]3CC[C@@H](O)CC3)c[nH]c12 | – |
| 6 | Cc1ccc(-c2ncc3c(n2)N2CCOC[C@@]2(C)C(=O)N3[C@H]2CC[C@H](O)CC2)c2cc[nH]c12 | – |
| 6 | Cc1cccc2c(-c3ncc4c(n3)N3CCOC[C@@]3(C)C(=O)N4C3(CCCO)CC3)c[nH]c12 | – |
| 7 | Cc1cccc2c(-c3ncc4c(n3)N3CCOC[C@@]3(C)C(=O)N4[C@H]3CC[C@H](O)CC3)c[nH]c12 | – |
| 8 | Cc1ccc(-c2ncc3c(n2)N2CCOC[C@@]2(C)C(=O)N3[C@H]2CC[C@@H](O)CC2)c2cc[nH]c12 | – |
| 6 | C[C@@]12COCCN1c1nc(-c3cccc4[nH]ccc34)ncc1N([C@H]1CC[C@@H](O)CC1)C2=O | – |

Further lines, the compound ahead of its results:

| SMILES | CLint scaled [1] [mL/min/kg] | other results |
| --- | --- | --- |
| C[C@@]12COCCN1c1nc(-c3cnc4[nH]ccc4c3)ncc1N(C1CCOCC1)C2=O | 6 | – |
| C[C@@]12COCCN1c1nc(-c3cccc4[nH]ccc34)ncc1N([C@H]1CC[C@H](O)CC1)C2=O | – | Fa [2]: 100%; Activity [3]: < 20%; inhibition in vivo at 2 mg/kg (A549 [4]): 100% |
| CC(=O)N1CCC(N2C(=O)[C@]3(C)COCCN3c3nc(-c4cccc5[nH]ccc45)ncc32)CC1 | 6 | – |
| C[C@@]12COCCN1c1nc(-c3cnc4[nH]ccc4c3)ncc1N(C1CCOC1)C2=O (mixture of isomers) | 12 | – |
| C[C@@]12COCCN1c1nc(-c3cccc4[nH]ccc34)ncc1N(C1CCOCC1)C2=O | 10 | IC50 (Cytochrome P450 2C9): > 40 µM; IC50 (Cytochrome P450 2C8): > 40 µM; IC50 (Cytochrome P450 1A2): > 40 µM; IC50 (Cytochrome P450 2C19): > 40 µM; IC50 (Cytochrome P450 2D6): > 40 µM; IC50 (Cytochrome P450 3A4): > 40 µM |
| C[C@@]12COCCN1c1nc(-c3cnc4[nH]ccc4c3)ncc1N(C1CCN(S(C)(=O)=O)CC1)C2=O | 6 | – |
| CC(F)(F)CN1C(=O)[C@]2(C)COCCN2c2nc(-c3ccc(NC(=O)NC4CC4)cc3)ncc21 | – | CLint scaled [5]: < 10 mL/min/kg; Activity [6]: < 20%; inhibition in vivo at 30 mg/kg (A549 [7]): 100%; Ratio IC50 [8]: > 50 |
| COCCCN1C(=O)[C@]2(C)COCCN2c2nc(-c3cnc4[nH]ccc4c3)ncc21 | 32 | – |
